Laboratory results: PubChem BioAssay AID1963974 (Molecular Pharmacology Branch, DTP, NCI, 2024)

System: 648629-189-R-J1-PDC spheroids with HUVEC/MSC, viability
Experiment: Anticancer human tumor 648629-189-R-J1-PDC patient-derived bladder carcinoma cell line growth inhibition [PI3K]
Conditions: for IC50: curve of first compound; for viability, T/C: stronger effect = lower value
Outline: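 Three cell types, namely tumor cells, endothelial cells and mesenchymal stem cells, formed each spheroid. Combinations with four PI3K inhibitors were screened at clinically achievable concentrations decreasing by half-log, and spheroid viability was recorded.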

[1] = second compound 0.0316 µM, first compound 0.0316 µM
[2] = second compound 0.0316 µM, first compound 0.1 µM
[3] = second compound 0.0316 µM, first compound 0.316 µM
[4] = second compound 0.0316 µM, first compound 1 µM
[5] = second compound 0.0316 µM, first compound 3.16 µM
[6] = second compound 0.0316 µM, first compound 10 µM
[7] = second compound 0.1 µM, first compound 0.0316 µM
[8] = second compound 0.1 µM, first compound 0.1 µM
[9] = second compound 0.1 µM, first compound 0.316 µM
[10] = second compound 0.1 µM, first compound 1 µM
[11] = second compound 0.1 µM, first compound 3.16 µM
[12] = second compound 0.1 µM, first compound 10 µM
[13] = second compound 0.316 µM, first compound 0.0316 µM
[14] = second compound 0.316 µM, first compound 0.1 µM
[15] = second compound 0.316 µM, first compound 0.316 µM
[16] = second compound 0.316 µM, first compound 1 µM
[17] = second compound 0.316 µM, first compound 3.16 µM
[18] = second compound 0.316 µM, first compound 10 µM
[19] = second compound 1 µM, first compound 0.0316 µM
[20] = second compound 1 µM, first compound 0.1 µM
[21] = second compound 1 µM, first compound 0.316 µM
[22] = second compound 1 µM, first compound 1 µM
[23] = second compound 1 µM, first compound 3.16 µM
[24] = second compound 1 µM, first compound 10 µM
[25] = second compound 3.16 µM, first compound 0.0316 µM
[26] = second compound 3.16 µM, first compound 0.1 µM
[27] = second compound 3.16 µM, first compound 0.316 µM
[28] = second compound 3.16 µM, first compound 1 µM
[29] = second compound 3.16 µM, first compound 3.16 µM
[30] = second compound 3.16 µM, first compound 10 µM
[31] = second compound 10 µM, first compound 0.0316 µM
[32] = second compound 10 µM, first compound 0.1 µM
[33] = second compound 10 µM, first compound 0.316 µM
[34] = second compound 10 µM, first compound 1 µM
[35] = second compound 10 µM, first compound 3.16 µM
[36] = second compound 10 µM, first compound 10 µM
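Further: spheroids exposed to agents for seven days before reading.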
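Wherever viability, T/C is given: percent of vehicle control luminescence where 100% = DMSO treated spheroids.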

## CC(Cn1ccc(-c2ccc(C#N)c(Cl)c2)n1)NC(=O)c1cc(C(C)O)[nH]n1 (stereo unspecified) + Cc1nc(NC(=O)N2CCCC2C(N)=O)sc1-c1ccnc(C(C)(C)C(F)(F)F)c1
Second compound 0.0316 µM
  IC50: > 10 µM
Second compound 0.1 µM
  IC50: > 10 µM
Second compound 0.316 µM
  IC50: > 10 µM
Second compound 1 µM
  IC50: > 10 µM
Second compound 3.16 µM
  IC50: > 10 µM
Second compound 10 µM
  IC50: < 0.0316 µM
[1]
  viability, T/C: 86.5%
[2]
  viability, T/C: 95.8%
[3]
  viability, T/C: 95.9%
[4]
  viability, T/C: 87.5%
[5]
  viability, T/C: 82.8%
[6]
  viability, T/C: 67.1%
[7]
  viability, T/C: 92.4%
[8]
  viability, T/C: 91.8%
[9]
  viability, T/C: 87.7%
[10]
  viability, T/C: 89.6%
[11]
  viability, T/C: 77.7%
[12]
  viability, T/C: 66.2%
[13]
  viability, T/C: 91.5%
[14]
  viability, T/C: 84.6%
[15]
  viability, T/C: 87.3%
[16]
  viability, T/C: 81.5%
[17]
  viability, T/C: 78.1%
[18]
  viability, T/C: 68.2%
[19]
  viability, T/C: 70.8%
[20]
  viability, T/C: 74.2%
[21]
  viability, T/C: 68.1%
[22]
  viability, T/C: 69.9%
[23]
  viability, T/C: 63.9%
[24]
  viability, T/C: 62.3%
[25]
  viability, T/C: 53.1%
[26]
  viability, T/C: 54.6%
[27]
  viability, T/C: 47.4%
[28]
  viability, T/C: 51.5%
[29]
  viability, T/C: 57.1%
[30]
  viability, T/C: 52.6%
[31]
  viability, T/C: 38.5%
[32]
  viability, T/C: 38.6%
[33]
  viability, T/C: 35.4%
[34]
  viability, T/C: 40.4%
[35]
  viability, T/C: 36.9%
[36]
  viability, T/C: 37.4%

## CC1(C)CCC(Nc2ncc(C(F)(F)F)c(-c3c[nH]c4c(P(C)(C)=O)c(C#N)ccc34)n2)CN1 (stereo unspecified) + Cc1nc(NC(=O)N2CCCC2C(N)=O)sc1-c1ccnc(C(C)(C)C(F)(F)F)c1
Second compound 0.0316 µM
  IC50: < 0.0316 µM
Second compound 0.1 µM
  IC50: < 0.0316 µM
Second compound 0.316 µM
  IC50: < 0.0316 µM
Second compound 1 µM
  IC50: < 0.0316 µM
Second compound 3.16 µM
  IC50: < 0.0316 µM
Second compound 10 µM
  IC50: < 0.0316 µM
[1]
  viability, T/C: 29.4%
[2]
  viability, T/C: 27.6%
[3]
  viability, T/C: 25.6%
[4]
  viability, T/C: 33.7%
[5]
  viability, T/C: 40.7%
[6]
  viability, T/C: 5.12%
[7]
  viability, T/C: 24.7%
[8]
  viability, T/C: 27.4%
[9]
  viability, T/C: 29.3%
[10]
  viability, T/C: 38.2%
[11]
  viability, T/C: 40.9%
[12]
  viability, T/C: 4.14%
[13]
  viability, T/C: 27.6%
[14]
  viability, T/C: 24.7%
[15]
  viability, T/C: 30.5%
[16]
  viability, T/C: 27.9%
[17]
  viability, T/C: 36.4%
[18]
  viability, T/C: 4.18%
[19]
  viability, T/C: 26.8%
[20]
  viability, T/C: 23.9%
[21]
  viability, T/C: 26%
[22]
  viability, T/C: 27.4%
[23]
  viability, T/C: 27.4%
[24]
  viability, T/C: 2.87%
[25]
  viability, T/C: 26%
[26]
  viability, T/C: 23.1%
[27]
  viability, T/C: 21%
[28]
  viability, T/C: 22.2%
[29]
  viability, T/C: 24.7%
[30]
  viability, T/C: 1.62%
[31]
  viability, T/C: 21.5%
[32]
  viability, T/C: 17.1%
[33]
  viability, T/C: 18.1%
[34]
  viability, T/C: 16.6%
[35]
  viability, T/C: 15.5%
[36]
  viability, T/C: 0.41%

## Cn1nccc1Nc1nccc(-c2ccn(C(CO)c3ccc(Cl)c(F)c3)c(=O)c2)n1 (stereo unspecified) + Cc1nc(NC(=O)N2CCCC2C(N)=O)sc1-c1ccnc(C(C)(C)C(F)(F)F)c1
Second compound 0.0316 µM
  IC50: > 10 µM
Second compound 0.1 µM
  IC50: > 10 µM
Second compound 0.316 µM
  IC50: > 10 µM
Second compound 1 µM
  IC50: > 10 µM
Second compound 3.16 µM
  IC50: > 10 µM
Second compound 10 µM
  IC50: < 0.0316 µM
[1]
  viability, T/C: 120%
[2]
  viability, T/C: 96.2%
[3]
  viability, T/C: 112%
[4]
  viability, T/C: 112%
[5]
  viability, T/C: 111%
[6]
  viability, T/C: 74.7%
[7]
  viability, T/C: 93.5%
[8]
  viability, T/C: 105%
[9]
  viability, T/C: 108%
[10]
  viability, T/C: 104%
[11]
  viability, T/C: 96.1%
[12]
  viability, T/C: 79.2%
[13]
  viability, T/C: 94.3%
[14]
  viability, T/C: 97.6%
[15]
  viability, T/C: 98.1%
[16]
  viability, T/C: 102%
[17]
  viability, T/C: 92.8%
[18]
  viability, T/C: 75.4%
[19]
  viability, T/C: 83.3%
[20]
  viability, T/C: 79.4%
[21]
  viability, T/C: 72.8%
[22]
  viability, T/C: 85.7%
[23]
  viability, T/C: 82.2%
[24]
  viability, T/C: 70.6%
[25]
  viability, T/C: 64.4%
[26]
  viability, T/C: 63.1%
[27]
  viability, T/C: 56.8%
[28]
  viability, T/C: 72.1%
[29]
  viability, T/C: 67.1%
[30]
  viability, T/C: 67.1%
[31]
  viability, T/C: 40.2%
[32]
  viability, T/C: 39.5%
[33]
  viability, T/C: 41.5%
[34]
  viability, T/C: 45.5%
[35]
  viability, T/C: 54.9%
[36]
  viability, T/C: 55.1%
